We go through five molecules from patent publication US10858326B2, “Oxazoline pseudodimers, pharmaceutical compositions and the use thereof” (PURDUE PHARMA L.P., priority 2016, dated 2020).

The target of this test is hTAAR1 (Homo sapiens (Human), UniProt Q96RJ0). As to the kind of experiment: in vitro cAMP assay (agonist activity assay), HitHunter cAMP XS+, cAMP Hunter cell lines. It counts as cell-based. To be noted: cAMP Hunter cells, n in brackets; for EC50: 30 min at 37° C., read-out: hTAAR1 EC50 (mean ± SEM(n)); for Emax: maximal cAMP level, read-out: hTAAR1 Emax (mean ± SEM(n)). On the procedure:
EC50 (the effective concentration of an agonist that produces half of the maximal effect) and Emax (the maximal cAMP level generated by the biding of a ligand) can be used as a measure of potency. […] An in vitro cAMP assay (agonist activity assay) is described below.
cAMP Hunter cell lines were expanded from freezer stocks according to standard procedures. Cells were seeded in a total volume of 20 μL into white walled, 384-well microplates and incubated at 37° C. overnight prior to testing. cAMP modulation was determined using the HitHunter™ cAMP XS+ assay (DiscoverX, Fremont, Calif.).
On the day of test, media was aspirated from cells and replaced with 15 μL HBSS/10 mM HEPES. A plate centrifuge was used for the media exchange, and the plate centrifuge was immediately stopped once its speed hit 270 RPM.
5 μL of 4× compound (prepared in HBSS/10 mM HEPES/4% DMSO) was added to cells and incubated at 37° C. for 30 minutes. Final assay vehicle concentration was 1%.
5 μL of cAMP XS+ Antibody reagent was then added, followed by 20 μL of ED/CL lysis mix. The mixture was incubated at room temperature for 60 minutes. 20 μL of EA reagent was added, and the mixture was incubated at room temperature for 120 minutes.
Microplates were read following signal generation with a PerkinElmer Envision™ instrument (Waltham, Mass.) for chemiluminescent signal detection. Compound activity was analyzed using CBIS Data Analysis Suite (ChemInnovation, CA).
(In general: Cyclic AMP is a second messenger, typically raised through Gs and lowered through Gi signalling.)

Chain of hTAAR1 (Q96RJ0 whole entry): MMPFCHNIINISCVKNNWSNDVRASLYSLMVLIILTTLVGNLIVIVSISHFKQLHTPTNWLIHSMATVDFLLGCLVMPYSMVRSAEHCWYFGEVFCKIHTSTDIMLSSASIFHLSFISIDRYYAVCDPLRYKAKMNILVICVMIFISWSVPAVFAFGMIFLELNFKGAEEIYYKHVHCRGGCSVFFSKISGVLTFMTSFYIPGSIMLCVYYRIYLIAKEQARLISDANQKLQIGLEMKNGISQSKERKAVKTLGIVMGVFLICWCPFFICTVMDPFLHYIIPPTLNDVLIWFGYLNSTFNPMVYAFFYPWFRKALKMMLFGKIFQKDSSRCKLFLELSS

As for `Clc1ccc([C@H]2COC(NC3=N[C@@H](c4ccc(Cl)c(Cl)c4)CO3)=N2)cc1Cl` [Compound (8), (4S)-4-(3,4-dichlorophenyl)-N-[(4S)-4-(3,4-dichlorophenyl)-4,5-dihydro-1,3-oxazol-2-yl]-4,5-dihydro-1,3-oxazol-2-amine], the concentration giving a half-maximal response (EC50) – broadly, the concentration that produces a half-maximal response – is over 10 µM. For `CCN(C[C@H]1COC(NC2=N[C@@H](c3ccc(Cl)c(Cl)c3)CO2)=N1)c1ccccc1` [Compound (24), (4S)-4-(3,4-dichlorophenyl)-N-[(4S)-4-{[ethyl(phenyl)amino]methyl}-4,5-dihydro-1,3-oxazol-2-yl]-4,5-dihydro-1,3-oxazol-2-amine], the concentration for a half-maximal effect (EC50) is over 10 µM and the Emax (commonly the greatest response seen or fitted, relative to the assay's reference) is 34.3 ± 8.7%. On to `CCN(C[C@H]1COC(NC2=N[C@@H](CN(CC)c3ccccc3)CO2)=N1)c1ccccc1` [Compound (25), (4S)-4-{[ethyl(phenyl)amino]methyl}-N-[(4S)-4-{[ethyl(phenyl)amino]methyl}-4,5-dihydro-1,3-oxazol-2-yl]-4,5-dihydro-1,3-oxazol-2-amine], for which the EC50 is 4.07 ± 1.07 µM and the Emax was 60.7 ± 9.4%. For the molecule `c1ccc([C@H]2COC(NC3=N[C@@H](c4ccccc4)CO3)=N2)cc1` [Compound (26), (4S)-4-phenyl-N-[(4S)-4-phenyl-4,5-dihydro-1,3-oxazol-2-yl]-4,5-dihydro-1,3-oxazol-2-amine], the EC50 was over 10 µM and the Emax amounted to 3.6 ± 0.9%. For `Cc1c(F)cccc1[C@H]1COC(NC2=N[C@@H](c3cccc(F)c3C)CO2)=N1` [Compound (27), (4S)-4-(3-fluoro-2-methylphenyl)-N-[(4S)-4-(3-fluoro-2-methylphenyl)-4,5-dihydro-1,3-oxazol-2-yl]-4,5-dihydro-1,3-oxazol-2-amine], the EC50 was 0.398 ± 0.0656 µM and the Emax is 67.5 ± 3.4%.
